# Data as given in patent US5871946A, “Method for determining activity of enzymes in metabolically active whole cells” (priority 1995, dated 1999).
# Numbered stars: 1 amine (or outer) side, 2 acyl side, 3 side chain; on linkers, the order of the positions; unused ones are H or OH. Bridge positions count the residues as written; N and C are the ends. Peptide text beside a SMILES is read from it. I, II: the chains in the order shown. Rhodamine110 = O=C1OC2(c3ccc(N[*:1])cc3Oc3cc(N[*:2])ccc32)c2ccccc21
# Columns and labels:
# MONOCYTES = assay: Disease to normal ratio of enzyme activity, monocytes (Table 5); assay type: cell-based, human
# Excerpt: (§1) A normal in house adult donor pool was drawn, recording sex and determining that no known disease state was present at the time of sample draw. Criteria for rejecting samples included patients under medication, patients with infection or inflammation of any type, colds and flu as well as any known medical illness such as cancer, heart ailment and high blood pressure. A donor list of 75 patients has been developed and a mean and 2 sd range established. A subgroup of "super normals" was developed from this list by examining the 75 patients to determine which group falls closest to the mean for all enzymes in all cell types tested. These patients were used as the "wellness index" or best group of "normalcy" patients. If a study required the use of children or newborns then this same format was used to develop a data base for these age groups.
# LYMPHOCYTES = assay: Disease to normal ratio of enzyme activity, lymphocytes (Table 5); assay type: cell-based, human
# Excerpt: as §1
# [1] = Inflam. Bowel Dis., monocytes section
SMILES,Ratio of disease to normal (MONOCYTES; [1]),"Ratio of disease to normal (MONOCYTES; JRA, monocytes)","Ratio of disease to normal (MONOCYTES; Kawasaki's, monocytes)","Ratio of disease to normal (MONOCYTES; Lupus, monocytes)","Ratio of disease to normal (MONOCYTES; Rheumatic Fever, monocytes)",Ratio of disease to normal (LYMPHOCYTES; Dermatomyositis),Ratio of disease to normal (LYMPHOCYTES; Inflam. Bowel Dis.),Ratio of disease to normal (LYMPHOCYTES; JRA),Ratio of disease to normal (LYMPHOCYTES; Kawasaki's),Ratio of disease to normal (LYMPHOCYTES; Lupus),Ratio of disease to normal (LYMPHOCYTES; Rheumatic Fever),"Ratio of disease to normal (MONOCYTES; Dermatomyositis, monocytes)"
"C[C@H](N)C(=O)Nc1ccc2c(c1)Oc1cc(NC(=O)[C@H](C)N)ccc1C21OC(=O)c2ccccc21 [ALA, (Ala)2 Rho 110]",1.43,1.31,1.36,6.17,1.08,1.16,1.53,1.59,1.05,1.16,1.18,–
"O=C1OC2(c3ccc(OP(=O)(O)O)cc3Oc3cc(OP(=O)(O)O)ccc32)c2ccccc21 [DPO4, (PO4)2 fluorescein]",–,1.13,–,–,1.09,–,–,–,–,–,–,–
"CC(=O)Oc1ccc2c(c1)Oc1cc(OC(C)=O)ccc1C21OC(=O)c2ccccc21 [FDA, fluorescein diacetate, reference compound]",–,1.55,–,1.01,–,1.06,–,1.17,–,1.01,–,–
"CC(=O)Oc1ccc2c(c1)Oc1cc(OC(C)=O)ccc1C21OC(=O)c2ccccc21 [FDA-NAF, reference compound]",1.11,0.35,0.58,0.83,0.89,1.14,0.89,0.21,0.30,0.74,0.97,1.03
"C[C@H](NC(=O)CNC(=O)[C@H](Cc1ccccc1)NC(=O)CN)C(=O)Nc1ccc2c(c1)Oc1cc(NC(=O)[C@H](C)NC(=O)CNC(=O)[C@H](Cc3ccccc3)NC(=O)CN)ccc1C21OC(=O)c2ccccc21 [GFGA, (Gly-Phe-Gly-Ala)2 Rho 110] (I: H-GFGA / II: H-GFGA; linker I:C-II:C via Rhodamine110)",3.42,2.29,1.77,2.18,1.36,2.14,2.16,2.03,2.15,1.25,2.14,2.01
"NCC(=O)Nc1ccc2c(c1)Oc1cc(NC(=O)CN)ccc1C21OC(=O)c2ccccc21 [GLY, (Gly)2 Rho 110]",1.84,1.11,3.83,–,2.06,–,1.97,–,1.94,1.64,2.09,1.01
"C[C@H](NC(=O)[C@@H](N)CCCCN)C(=O)Nc1ccc2c(c1)Oc1cc(NC(=O)[C@H](C)NC(=O)[C@@H](N)CCCCN)ccc1C21OC(=O)c2ccccc21 [KA, (Lys-Ala)2 Rho 110]",1.95,–,2.22,6.93,2.39,1.39,1.75,–,1.53,1.93,1.19,1.04
"C[C@H](NC(=O)[C@@H](N)CCCCN)C(=O)Nc1ccc2c(c1)Oc1cc(NC(=O)[C@H](C)NC(=O)[C@@H](N)CCCCN)ccc1C21OC(=O)c2ccccc21 [KA-M, (Lys-Ala)2 Rho 110]",–,12.14,7.08,14.08,15.36,1.93,1.63,1.46,1.32,1.06,2.07,1.55
"N=C(N)NCCC[C@H](N)C(=O)NCC(=O)N[C@@H](CCC(=O)O)C(=O)N[C@@H](CO)C(=O)Nc1ccc2c(c1)Oc1cc(NC(=O)[C@H](CO)NC(=O)[C@H](CCC(=O)O)NC(=O)CNC(=O)[C@@H](N)CCCNC(=N)N)ccc1C21OC(=O)c2ccccc21 (stereo partly drawn) [RGES, (Arg-Gly-Glu-Ser)2 Rho 110] (I: H-RGES / II: H-RGES; linker I:C-II:C via Rhodamine110)",6.02,3.98,4.65,3.03,6.52,2.06,1.96,1.43,1.43,1.84,2.04,5.22
"CC(C)[C@H](N)C(=O)N[C@@H](CCCCN)C(=O)Nc1ccc2c(c1)Oc1cc(NC(=O)[C@H](CCCCN)NC(=O)[C@@H](N)C(C)C)ccc1C21OC(=O)c2ccccc21 [VK, (Val-Lys)2 Rho 110]",3.08,5.94,5.38,1.64,1.32,1.39,1.08,–,1.19,1.25,–,1.42
"CC(C)[C@H](N)C(=O)N[C@@H](CCCCN)C(=O)Nc1ccc2c(c1)Oc1cc(NC(=O)[C@H](CCCCN)NC(=O)[C@@H](N)C(C)C)ccc1C21OC(=O)c2ccccc21 [VK-M, (Val-Lys)2 Rho 110 (modified)]",1.41,3.49,–,11.37,8.67,–,–,7.71,–,–,–,3.45
